Test system: HeLa cells
Assay: Acridine orange staining of acidic vesicular organelles
Type: cell-based
Conditions: 24 hrs
Method: FIG. 3A is the graph showing the percentage of nuclear translocated TFEB for which TFEB-GFP HeLa cells were treated with MSL compound for 4 hrs and then nuclei of the cells were stained with DAPI. FIG. 3B is the results of the experiments in which HeLa cells were incubated in the presence of MSL compound or vehicle control for 24 hrs and then the acidic vesicular organelles formed were stained with acridine orange. FIG. 3C is the results of the experiments in which TFEB-GFP HeLa cells were treated with MSL compound or vehicle control for 4 hrs and then the cells were immunoblotted with the antibodies indicated. […]
Screening of autophagy enhancer. […] Firefly luciferase was determined after mixing 5 μl of lysate with 25 μl of Luciferase Assay Reagent II. Renilla luciferase was then determined after further addition of 20 ul of Stop&Glo Reagent. […] Cytotoxicity was determined by the measurement of LDH release in cell culture media using the LDH kit (Roche), according to the protocol from the manufacturer. […] Imaging and image quantification. […] Formation of acidic vesicular organelles was quantitated by staining the cells with acridine orange (Invitrogen, 5 ug/ml, 10 min). […] Cells or tissues were solubilized in lysis buffer supplemented with protease and phosphatase inhibitors and protein concentration was measured by the Bradford method. […] Protein levels were quantified by using ImageJ software analysis. […]

CSc1oc(-c2ccccc2)nc1S(=O)(=O)c1ccc(F)cc1 [MSL]
red fluorescence after acridine orange staining (lysosomal acidification and content): significantly increased

— patent US10881642B2, “Autophagy enhancer and use thereof” (Industry-Academic Cooperation Foundation, Yonsei University, priority 2016, dated 2021)
